{
  "source": "patent US20070264287A1",
  "about": "“Methods for Increasing the Immune Response in an Animal” (priority 2004, published 2007)",
  "test_system": "NK cell activity",
  "assay": "NK cell activity in old dogs fed a diet fortified with lipoic acid",
  "format": "in vivo",
  "settings": "old beagles (Group 3, average age 11.3 years), dry food fortified with 150 ppm lipoic acid on a dry matter basis, six weeks, versus baseline and young and old controls; FIG. 1",
  "text": "The dogs are beagles and Group 1 consists of 10 beagles with the average age of 5.1 years old, Group 2 consists of 10 beagles with an average age of 11.8 years old, and Group 3 consists of 10 beagles with an average age of 11.3 years old. The dogs from all three groups are fed the controlled food for a two week period prior to intervention. […] During the two week period on the control, samples are taken from all dogs and chemical and biological analysis is completed on the samples to establish base line data. Then three groups of dogs eat their respective diets for a six week period of time and after this time period, samples are taken from all of the dogs in the study and chemical and biological analysis is completed on the samples. Baseline data is compared to the data taken at the end of the six week study.",
  "data": [
    {"smiles": "O=C(O)CCCC[C@@H]1CCSS1", "note": "(racemic) [lipoic acid]", "values": [
      {"measurement": "NK cell activity", "value": "increased NK cell activity"}
    ]}
  ]
}
